Where two headings read alike, the source gives them in different places.

In this experiment the test system is SARS-CoV-2. Briefly: microbe, parasite or virus in culture. Type of experiment: cell-based, SARS-CoV-2 variant omicron XBB.1.16.11. The conditions noted are these: for antiviral activity against SARS-CoV-2 (in words): up to 50 μM.
The mark [1] stands for this setting: Severe acute respiratory syndrome coronavirus 2, Vero C1008, read-out: EC50, concentration required to reduce the SARS-CoV-2 replication in Vero cells by 50%.
The mark [2] stands for this setting: Severe acute respiratory syndrome coronavirus 2, plaque assay, SARS-CoV-2 in Vero cells, read-out: 95% confidence interval (CI) of EC50.

On to `CC(C)c1ccc(Cn2cc(/C=C/C(=O)/C=C(\O)C(=O)O)c3ccccc32)cc1` [5c], for which the EC50 under setting [1] is 9.41 ± 0.91 µM and the EC50 under setting [2] is 8.54 to 10.4 µM.
In the case of `O=C(/C=C(\O)C(=O)O)/C=C/c1cn(Cc2ccc(OC(F)(F)F)cc2)c2ccccc12` [5e], the EC50 under setting [1] stood at 9.4 ± 2.26 µM and the EC50 under setting [2] is 7.36 to 11.9 µM.
Take `N#Cc1ccc(Cn2cc(/C=C/C(=O)/C=C(\O)C(=O)O)c3ccccc32)cc1` [5g, (2Z,5E)-6-(1-(4-cyanobenzyl)-1H-indol-3-yl)-2-hydroxy-4-oxohexa-2,5-dienoic acid]: the EC50 is, setting by setting: under setting [1], 14.5 ± 4.2 µM; under setting [2], 10.9 to 19.3 µM.
The like results for `O=C(/C=C(\O)C(=O)O)/C=C/c1cn(Cc2ccc(F)cc2)c2ccc(Cl)cc12` [5i, (2Z,5E)-6-(5-chloro-1-(4-fluorobenzyl)-1H-indol-3-yl)-2-hydroxy-4-oxohexa-2,5-dienoic acid] were, in that order, 6.77 ± 1.17 µM and 5.69 to 8.03 µM.
Take `CCOC(=O)/C(O)=C/C(=O)/C=C/c1cn(Cc2ccc(OC(F)(F)F)cc2)c2ccccc12` [6e]: the EC50 under setting [1] worked out at 50 µM. Moreover, the “antiviral activity against SARS-CoV-2 (in words)” value (plaque assay) is “low activity”.
As for `CCOC(=O)/C(O)=C/C(=O)c1cn(Cc2ccc(F)cc2)c2ccccc12` [8d, Ethyl (Z)-4-(1-(4-fluorobenzyl)-1H-indol-3-yl)-2-hydroxy-4-oxobut-2-enoate], under setting [1], the EC50 was over 50 µM. Moreover, the “antiviral activity against SARS-CoV-2 (in words)” value (plaque assay) is reported as “not showed any antiviral activity up to the maximum concentration tested”.
`CC(C)=Cn1cc(/C=C/C(=O)/C=C(\O)C(=O)O)c2ccccc21` [9c, (2Z,5E)-2-hydroxy-6-(1-(2-methylprop-1-en-1-yl)-1H-indol-3-yl)-4-oxohexa-2,5-dienoic acid]: the EC50 reads like this: under setting [1], 4.23 ± 0.96 µM; under setting [2], 3.33 to 5.26 µM.
